Measured values from US7897602B2, “Indolinone compounds as kinase inhibitors” (Development Center for Biotechnology, priority 2009, dated 2011).

Tests used:
Assay type in all cases: biochemical
c-Met kinase = biological target: T1, c-Met kinase (Homo sapiens, UniProt P08581); assay: c-Met kinase assay (33P incorporation into Poly(Glu-Tyr)); details: 500 nM test compound
T1 construct: recombinant N-terminal 6×His-tagged c-Met kinase domain construct expressed from baculovirus; 6xHis (N); made in house
T1 sequence (P08581 1078-1345 limits assumed): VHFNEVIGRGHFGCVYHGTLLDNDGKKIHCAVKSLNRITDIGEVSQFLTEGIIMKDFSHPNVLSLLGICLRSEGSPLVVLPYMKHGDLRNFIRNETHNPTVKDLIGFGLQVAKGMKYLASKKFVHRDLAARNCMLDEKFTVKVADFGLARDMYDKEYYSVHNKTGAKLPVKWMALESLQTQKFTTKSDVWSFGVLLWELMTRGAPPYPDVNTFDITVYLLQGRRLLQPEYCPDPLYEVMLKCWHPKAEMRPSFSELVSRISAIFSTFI
Protocol: Inhibition of c-Met kinase activity by compounds disclosed herein was quantified by measuring the amount of [^33P] incorporated into the substrate in the presence of a test compound. Briefly, a reaction mixture of 25 μL final volume containing 5 ng of c-Met kinase (obtained by purifying recombinant N-terminal 6×His-tagged c-Met kinase domain construct expressed from baculovirus), 1 μg of the substrate (Poly (Glu-Tyr, 4:1, Sigma)), kinase reaction buffer (20 mM MOPS pH 7.0, 1 mM EDTA, 5% glycerol, 0.01% Brij-35, 0.1% β-mercaptoethanol, 1 mg/mL BSA, 100 μM ATP, 0.1 μCi per well [^33P]-γ-ATP (2,500-3,000 Ci/mmol)), and a test compound (500 nM, diluted with 4% DMSO) or DMSO (as the control) was incubated at 30° C. for 30 minutes. The reaction was stopped by adding 5 μL of 3% phosphoric acid solution. The resultant reaction solution was then harvested onto a filter plate (UniFilter-96 GF/B, PerkinElmer), washed 20 times for 5 min with d.d. H2O, and followed by the addition of 30 μL of MicroScint™-20 Cocktail (PerkinElmer). The plate was then sealed and counted using a TopCount scintillation detector (PerkinElmer). The percentage of inhibition rate of the test compound was calculated by dividing the retained radioactivity of the test sample with the retained radioactivity of the control sample and shown in Table 3.

Aurora B kinase = biological target: T2, Aurora B kinase (Homo sapiens, UniProt Q96GD4); assay: Aurora B kinase assay ([γ-33P]ATP, CHOCKtide substrate); details: 1.0 μM test compound
T2 construct: purchased Cell signaling
T2 sequence (Q96GD4 whole entry): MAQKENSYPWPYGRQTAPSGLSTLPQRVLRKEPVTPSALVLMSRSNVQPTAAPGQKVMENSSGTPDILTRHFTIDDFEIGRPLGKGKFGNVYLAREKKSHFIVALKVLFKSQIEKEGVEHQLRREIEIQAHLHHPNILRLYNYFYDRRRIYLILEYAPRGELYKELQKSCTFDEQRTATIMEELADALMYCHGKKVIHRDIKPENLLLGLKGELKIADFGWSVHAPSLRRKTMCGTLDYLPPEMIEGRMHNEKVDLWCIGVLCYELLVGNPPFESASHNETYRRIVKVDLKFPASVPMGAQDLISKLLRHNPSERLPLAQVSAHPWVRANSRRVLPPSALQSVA
Protocol: (§1) Inhibition of Aurora Kinase by the compounds disclosed herein was determined by incubating Aurora kinase, substrate, and a test compound together for a period of time followed by quantifying the resultant phosphorylated product. Specifically, in a well of a 96-well round bottom plate, 25 μL of a reaction mixture containing (1) a test compound disclosed herein (diluted from 9 μM to the desired final concentration), [γ-33P]ATP/ATP mix (10 μM), CHOCKtide (1 μg, Genesis Biotech Inc.), and Aurora-A (1 ng, purchased from Upstate); or (2) a test compound disclosed herein (diluted from 9 μM to the desired final concentration), [γ-33P]ATP/ATP mix (40 μM), CHOCKtide (1 μg, Genesis Biotech Inc.), and Aurora-B (2.5 ng, purchased from Cell signaling); was prepared and incubated at 33° C. for 30 minutes. The reaction was then stopped by adding 5 μL of 3% phosphoric acid. The resultant solution (30 μL) was later harvested by a UniFilter Plate GF/B (PerkinElmer) followed by adding 30 μL of the scintillation cocktail (MicroScint 20, PerkinElmer) to the well. The radioactivity retained on the filter membrane was measured by a luminescence counter (PerkinElmer). IC50 value is defined as the concentration of the test compound which achieves a half-maximal inhibition of the kinase activity.

Aurora A kinase = biological target: T3, Aurora A kinase (Homo sapiens, UniProt O14965); assay: Aurora A kinase assay ([γ-33P]ATP, CHOCKtide substrate); details: for inhibition at 1 µM: 1.0 μM test compound
T3 construct: purchased Upstate
T3 sequence (O14965 1-403): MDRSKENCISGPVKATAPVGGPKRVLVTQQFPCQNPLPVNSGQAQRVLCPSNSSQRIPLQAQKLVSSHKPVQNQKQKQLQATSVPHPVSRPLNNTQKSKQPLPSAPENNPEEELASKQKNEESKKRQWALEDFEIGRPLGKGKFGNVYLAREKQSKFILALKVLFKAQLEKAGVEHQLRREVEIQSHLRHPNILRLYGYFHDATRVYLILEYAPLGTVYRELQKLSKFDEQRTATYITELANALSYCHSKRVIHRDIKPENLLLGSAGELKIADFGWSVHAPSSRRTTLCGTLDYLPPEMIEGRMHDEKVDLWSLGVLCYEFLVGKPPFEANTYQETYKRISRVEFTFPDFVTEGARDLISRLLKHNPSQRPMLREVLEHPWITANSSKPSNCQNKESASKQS
Protocol: as §1

SMILES: CCOC(=O)CCc1c(/C=C2\C(=O)Nc3ccc(NS(=O)(=O)c4cccc(OC)c4)cc32)[nH]c2c1C(=O)CCC2 [DCB-70195, (Z)-ethyl 3-(2-((5-(3-methoxyphenylsulfonamido)-2-oxoindolin-3-ylidene)methyl)-4-oxo-4,5,6,7-tetrahydro-1H-indol-3-yl)propanoate]
- inhibition at 0.5 µM (c-Met kinase): 15.3%
- inhibition at 1 µM (Aurora B kinase): 47.5%
- inhibition at 1 µM (Aurora A kinase): 73.1%

SMILES: Nc1ccccc1NC(=O)CCc1c(/C=C2\C(=O)Nc3ccc(NS(=O)(=O)c4ccccc4)cc32)[nH]c2c1C(=O)CCC2 [DCB-70186, (Z)-N-(2-aminophenyl)-3-(4-oxo-2-((2-oxo-5-(phenylsulfonamido)indolin-3-ylidene)methyl)-4,5,6,7-tetrahydro-1H-indol-3-yl)propanamide]
- inhibition at 0.5 µM (c-Met kinase): 9.6%
- inhibition at 1 µM (Aurora B kinase): 47.4%
- inhibition at 1 µM (Aurora A kinase): 66.1%

SMILES: CCOC(=O)CCc1c(/C=C2\C(=O)Nc3ccc(NS(=O)(=O)c4cc(Cl)cc(Cl)c4)cc32)[nH]c2c1C(=O)CCC2 [DCB-70193, (Z)-ethyl 3-(2-((5-(3,5-dichlorophenylsulfonamido)-2-oxoindolin-3-ylidene)methyl)-4-oxo-4,5,6,7-tetrahydro-1H-indol-3-yl)propanoate]
- inhibition at 0.5 µM (c-Met kinase): 11.2%
- inhibition at 1 µM (Aurora B kinase): 36.7%
- inhibition at 1 µM (Aurora A kinase): 74.3%

SMILES: CCOC(=O)CCc1c(/C=C2\C(=O)Nc3ccc(NS(=O)(=O)c4ccccc4)cc32)[nH]c2c1C(=O)CC(C)(C)C2 [DCB-70168, (Z)-ethyl 3-(6,6-dimethyl-4-oxo-2-((2-oxo-5-(phenylsulfonamido)indolin-3-ylidene)methyl)-4,5,6,7-tetrahydro-1H-indol-3-yl)propanoate]
- inhibition at 0.5 µM (c-Met kinase): 12.7%
- inhibition at 1 µM (Aurora B kinase): 30.6%
- inhibition at 1 µM (Aurora A kinase): 53.4%

SMILES: CCOC(=O)CCc1c(/C=C2\C(=O)Nc3ccc(NCc4ccc(F)cc4)cc32)[nH]c2c1C(=O)CCC2 [DCB-70176, (Z)-ethyl 3-(2-((5-(4-fluorobenzylamino)-2-oxoindolin-3-ylidene)methyl)-4-oxo-4,5,6,7-tetrahydro-1H-indol-3-yl)propanoate]
- inhibition at 0.5 µM (c-Met kinase): 10.1%
- inhibition at 1 µM (Aurora B kinase): 15.2%
- inhibition at 1 µM (Aurora A kinase): 52.3%

SMILES: CC(=O)c1c(C)[nH]c(/C=C2\C(=O)Nc3ccc(S(=O)(=O)N4CCc5ccccc54)cc32)c1CCC(=O)N1CCN(C)CC1 [DCB-70206, (Z)-3-((4-acetyl-5-methyl-3-(3-(4-methylpiperazin-1-yl)-3-oxopropyl)-1H-pyrrol-2-yl)methylene)-5-(indolin-1-ylsulfonyl)indolin-2-one]
- inhibition at 0.5 µM (c-Met kinase): 77.4%
- inhibition at 1 µM (Aurora B kinase): 21.1%
- inhibition at 1 µM (Aurora A kinase): 37.4%

SMILES: CCN(CC)CCNC(=O)CCc1c(/C=C2\C(=O)Nc3ccc(S(=O)(=O)N4CCc5ccccc54)cc32)[nH]c(C)c1C(C)=O [DCB-70214, (Z)-3-(4-acetyl-2-((5-(indolin-1-ylsulfonyl)-2-oxoindolin-3-ylidene)methyl)-5-methyl-1H-pyrrol-3-yl)-N-(2-(diethylamino)ethyl)propanamide]
- inhibition at 0.5 µM (c-Met kinase): 56.3%
- inhibition at 1 µM (Aurora B kinase): 14.8%
- inhibition at 1 µM (Aurora A kinase): 15.4%

SMILES: CCOC(=O)CCc1c(/C=C2\C(=O)Nc3ccc(S(=O)(=O)Cc4c(Cl)cccc4Cl)cc32)[nH]c2c1C(=O)CCC2 [DCB-70209, (Z)-ethyl 3-(2-((5-(2,6-dichlorobenzylsulfonyl)-2-oxoindolin-3-ylidene)methyl)-4-oxo-4,5,6,7-tetrahydro-1H-indol-3-yl)propanoate]
- inhibition at 0.5 µM (c-Met kinase): 92.1%
- inhibition at 1 µM (Aurora B kinase): 16.3%
- inhibition at 1 µM (Aurora A kinase): 22.7%

SMILES: CC1(C)CC(=O)c2c([nH]c(/C=C3\C(=O)Nc4ccc(NS(=O)(=O)c5ccccc5)cc43)c2CCC(=O)O)C1 [DCB-70169, (Z)-3-(6,6-dimethyl-4-oxo-2-((2-oxo-5-(phenylsulfonamido)indolin-3-ylidene)methyl)-4,5,6,7-tetrahydro-1H-indol-3-yl)propanoic acid]
- inhibition at 0.5 µM (c-Met kinase): 10.8%
- inhibition at 1 µM (Aurora B kinase): 31%
- inhibition at 1 µM (Aurora A kinase): 79.6%

SMILES: CC(=O)c1c(C)[nH]c(/C=C2\C(=O)Nc3ccc(S(=O)(=O)Cc4c(Cl)cccc4Cl)cc32)c1CCC(=O)N1CCN(C)CC1 [DCB-70205, (Z)-3-((4-acetyl-5-methyl-3-(3-(4-methylpiperazin-1-yl)-3-oxopropyl)-1H-pyrrol-2-yl)methylene)-5-(2,6-dichlorobenzylsulfonyl)indolin-2-one]
- inhibition at 0.5 µM (c-Met kinase): 97%
- inhibition at 1 µM (Aurora B kinase): 2.4%
- inhibition at 1 µM (Aurora A kinase): 11.3%

SMILES: O=C(O)CCc1c(/C=C2\C(=O)Nc3ccc(NS(=O)(=O)c4cc(Cl)cc(Cl)c4)cc32)[nH]c2c1C(=O)CCC2 [DCB-70194, (Z)-3-(2-((5-(3,5-dichlorophenylsulfonamido)-2-oxoindolin-3-ylidene)methyl)-4-oxo-4,5,6,7-tetrahydro-1H-indol-3-yl)propanoic acid]
- inhibition at 0.5 µM (c-Met kinase): 12.9%
- inhibition at 1 µM (Aurora B kinase): 41.7%
- IC50 (Aurora A kinase): 151 nM
- inhibition at 1 µM (Aurora A kinase): 85.3%

SMILES: CCN(CC)CCNC(=O)CCc1c(/C=C2\C(=O)Nc3ccc(S(=O)(=O)Cc4c(Cl)cccc4Cl)cc32)[nH]c(C)c1C(C)=O [DCB-70212, (Z)-3-(4-acetyl-2-((5-(2,6-dichlorobenzylsulfonyl)-2-oxoindolin-3-ylidene)methyl)-5-methyl-1H-pyrrol-3-yl)-N-(2-(diethylamino)ethyl)propanamide]
- inhibition at 0.5 µM (c-Met kinase): 95.2%
- inhibition at 1 µM (Aurora B kinase): 6.3%
- inhibition at 1 µM (Aurora A kinase): 3.5%

SMILES: CCCCCCC#Cc1ccc2c(c1)NC(=O)/C2=C\c1[nH]c2c(c1CCC(=O)OCC)C(=O)CCC2 [DCB-70170, (Z)-ethyl 3-(2-((6-(oct-1-ynyl)-2-oxoindolin-3-ylidene)methyl)-4-oxo-4,5,6,7-tetrahydro-1H-indol-3-yl)propanoate]
- inhibition at 0.5 µM (c-Met kinase): 13.1%
- inhibition at 1 µM (Aurora B kinase): 2.8%
- inhibition at 1 µM (Aurora A kinase): 10.5%

SMILES: O=C(O)CCc1c(/C=C2\C(=O)Nc3ccc(NS(=O)(=O)c4ccc5ccccc5c4)cc32)[nH]c2c1C(=O)CCC2 [DCB-70192, (Z)-3-(2-((5-(naphthalene-2-sulfonamido)-2-oxoindolin-3-ylidene)methyl)-4-oxo-4,5,6,7-tetrahydro-1H-indol-3-yl)propanoic acid]
- inhibition at 0.5 µM (c-Met kinase): 9.9%
- inhibition at 1 µM (Aurora B kinase): 21%
- inhibition at 1 µM (Aurora A kinase): 40.6%

SMILES: CCOC(=O)CCc1c(/C=C2\C(=O)Nc3ccc(NC(=O)NC45CC6CC(CC(C6)C4)C5)cc32)[nH]c2c1C(=O)CCC2 [DCB-70174, Ethyl 3-(2-((Z)-(5-(3-(1-adamantanyl)ureido)-2-oxoindolin-3-ylidene)methyl)-4-oxo-4,5,6,7-tetrahydro-1H-indol-3-yl)propanoate]
- inhibition at 0.5 µM (c-Met kinase): 4%
- inhibition at 1 µM (Aurora B kinase): -11.4%
- inhibition at 1 µM (Aurora A kinase): 2.4%

SMILES: COc1ccc2c(c1)/C(=C/c1[nH]c3c(c1CCC(=O)O)C(=O)CCC3)C(=O)N2 [DCB-70167, (Z)-3-(2-((5-methoxy-2-oxoindolin-3-ylidene)methyl)-4-oxo-4,5,6,7-tetrahydro-1H-indol-3-yl)propanoic acid]
- inhibition at 0.5 µM (c-Met kinase): 11.8%
- inhibition at 1 µM (Aurora B kinase): 19.8%
- IC50 (Aurora A kinase): 134 nM
- inhibition at 1 µM (Aurora A kinase): 86.4%

SMILES: CCN(CC)CCNC(=O)CCc1c(/C=C2\C(=O)Nc3ccc(S(=O)(=O)Cc4c(Cl)cccc4Cl)cc32)[nH]c2c1C(=O)CCC2 [DCB-70223, (Z)-3-(2-((5-(2,6-dichlorobenzylsulfonyl)-2-oxoindolin-3-ylidene)methyl)-4-oxo-4,5,6,7-tetrahydro-1H-indol-3-yl)-N-(2-(diethylamino)ethyl)propanamide]
- inhibition at 1 µM (Aurora B kinase): 43.7%
- inhibition at 1 µM (Aurora A kinase): 68.5%
